In PMC7934800, “Amino- and polyaminophthalazin-1(2H)-ones: synthesis, coordination properties, and biological activity” (Beilstein Journal of Organic Chemistry, 2021) one finds melting point and IC50 data, which are given here for twelve compounds.

In series [1] the test system is L-929 cells (mouse fibroblast cell line). Kind of series: MTT cytotoxicity assay, L-929. Format: cell-based. Particulars: L929, 72 h of cell treatment, L-929 control (non-cancer) cells. The source says: (§1) We used the MTT assay to evaluate compounds 5c, 5d, 5f, 5g, 6b, and 6d for their potential activity on cytotoxicity, proliferation and growth of HT-29 (human colon adenocarcinoma cell line), PC-3 (human prostate cancer cell line) and L-929 cells (mouse fibroblast cell line).
(§2) 2.1 Materials and methods:
(§3) Trypsin-EDTA and all media (RPMI 1640, DMEM/F-12K and IMDM) were purchased from Biowest (CytoGen, Poland). Buffered saline (PBS), penicillin-streptomycin solution stabilized, fetal bovine serum (FBS), amino acids solution (MEM), β-mercaptoethanol, dimethyl sulfoxide (DMSO) and MTT 3-(4,5-dimethylthiazol-2-yl)- […] bromide were supplied by Sigma Aldrich Chemical Co (USA).
(§4) All tested cell lines were provided by American Type Culture Collection (ATCC, […]
(§5) Rockville, Manassas,VA, USA). […]
In addition, the mouse fibroblast cell line
(L-929; ATCC® CCL-1™) was used as a model for non-cancer cells. […]
The L-929 was cultivated in IMDM Medium with 4 mM L-glutamine, 4500 mg/L glucose, and 1500 mg/L sodium bicarbonate supplemented with 10% (v/v) fetal bovine serum (FBS), 1% (v/v) penicillin/streptomycin and 1% (v/v) β-mercaptoethanol.
(§6) Cells were maintained in a humidified incubator at 37 °C in a 5% CO2 atmosphere and were regularly screened for mycoplasma contamination. Exponential growth of the cells was controlled by their routine passaging at 90% confluence three times a week using 0.025% trypsin/EDTA.
(§7) 2.3 Cytotoxicity analysis – MTT assay:
(§8) The viability of the cells is associated with their mitochondrial integrity and capacity.
(§9) For that reason, in the MTT microplate assay with 3-(4,5-dimethylthiazol-2-yl)-[…] bromide, first described by Mosmann [ 5], only viable cells with intact metabolism have the ability to incorporate the yellow, water-soluble tetrazolium […]
(§10) dehydrogenase to the violet-blue formazan compound. After dissolving the formazan crystals in an organic solvent, e.g., dimethyl sulfoxide (DMSO), the absorbance of the formazan solution can be measured spectrophotometrically at 570 nm.
(§11) In our research, the MTT assay was used to describe the effect of the tested compounds on cytotoxicity, proliferation and growth of HT-29, PC-3 and L-929 cells.
(§12) Before treatments with the tested compounds the suspension of 8×10^3 cells in 100 µ L medium was transferred to each well of a standard 96-well microplate. Subsequently, the plates were incubated for 24 h (5% CO 2; 37 °C) to ensure cell growth.
(§13) Afterwards, the examined substances at 10 different concentrations were added in 2– […]
(§14) volume of 100 µL medium per well. These concentrations were obtained diluting the compounds first in DMSO and then in medium, which were subsequently used to treat cells cultures in a final DMSO concentration between 0.1 and 1% per well [6] (Da Violante et. al. 2002). As control, the first and last columns were filled only with medium […]
(§15) without studied compounds. Furthermore, blanks (wells without cells) were also […]
(§16) The plates were then incubated for 72 h (37 °C; 5% CO2). Subsequently, 25 µL of fresh MTT solution (5 mg/mL in PBS) was added to each well and the microplates were incubated in a humidified atmosphere for additional 3 h (37 °C; 5% CO2). After the incubation, the MTT solution was replaced by 100 µL of DMSO in order to dissolve formazan complexes and absorbance was immediately measured (microplate reader PowerWaveXS BioTek Instruments, Inc., USA) at 570 nm.
The IC50 value (concentration of an inhibitor which reduces the absorbance level in the treated cells in comparison to untreated cells by half) representing the cytotoxicity of a substance was evaluated for each studied compound using the GraphPad Prism 7.0 software system (GraphPad Prism Software Inc., USA). To determinate statistical significance between the results one-way variance analysis (ANOVA) was used. The samples homogeneity was tested using Bartlett’s test, followed by Dunnett’s test. All data are presented as the mean of the replicates from three independent experiments, […]
On the technique in general: Formazan colour is commonly taken as a measure of viable cells.

Series [2] has as its system HT-29 (human colon adenocarcinoma cell line). As to the kind of experiment: MTT cytotoxicity assay, HT-29. The class given is cell-based. The following applies: 72 h of cell treatment, HT-29 cells.
Excerpt: as §1, §2, §3, §4, §5
The HT-29 cells were cultured in RPMI-1640 medium containing 2 mM L-glutamine, 10 mM HEPES, 1 mM sodium pyruvate, 4500 mg/L glucose and 1500 mg/L sodium bicarbonate, supplemented with 10% (v/v) fetal bovine serum (FBS), 1% (v/v) penicillin/streptomycin and 1% (v/v) MEM amino acid’s solution. […]
as §6, §7, §8, §9, §10, §11, §12, §13, §14, §15, §16
(§17) The IC50 value (concentration of an inhibitor which reduces the absorbance level in the treated cells in comparison to untreated cells by half) representing the cytotoxicity of a substance was evaluated for each studied compound using the GraphPad Prism 7.0 software system (GraphPad Prism Software Inc., USA). To determinate statistical significance between the results one-way variance analysis (ANOVA) was used. The samples homogeneity was tested using Bartlett’s test, followed by Dunnett’s test. All data are presented as the mean of the replicates from three independent experiments, with a significance level of p ≤ 0.05.

The subject of series [3] is PC-3 (human prostate cancer cell line). Kind of series: MTT cytotoxicity assay, PC-3. The class given is cell-based. The following applies: 72 h of cell treatment, PC-3 cells.
Excerpt: as §1, §2, §3, §4, §5, §6, §7, §8, §9, §10, §11, §12, §13, §14, §15, §16, §17

Usually melting point stands for the temperature of the solid-liquid transition. Consider `Cn1nc(N2CCOCC2)c2ccccc2c1=O` [5a], for which the melting point is 135 to 136 °C.

The compound `Cn1nc(N2CCSCC2)c2ccccc2c1=O` [5b] yielded a melting point of 132 to 134 °C.

In general, IC50 refers to the concentration that gives 50% inhibition. Read a high IC50 as lower potency. On to `Cn1nc(N2CCCCC2)c2ccccc2c1=O` [5c], for which the melting point lay within 92 to 93 °C. Moreover, 27.4 µM corresponded to half-maximal inhibition in series [1] (IC50). Besides, the IC50 in series [2] came to 36.7 µM. In series [3], this compound showed an IC50 of 46 µM.

On to `Cn1nc(NC2CCCCC2)c2ccccc2c1=O` [5d], for which the IC50 in series [1] was found to be 20.4 µM; in series [2] it was 29.8 µM; in series [3], 20.1 µM.

As to `CCCCCCNc1nn(C(C)C)c(=O)c2ccccc12` [5e], the melting point lay within 86 to 87 °C.

The compound `CC(C)n1nc(NCCc2cccs2)c2ccccc2c1=O` [5f] gave a melting point of 121 to 123 °C. In series [1], this compound registered an IC50 of 20.1 µM. This compound showed a 50% inhibitory concentration (IC50) in series [2] of 27.4 µM. Also, the IC50 in series [3] was found to be 27.3 µM.

As for `Cn1nc(NCc2ccc(C(F)(F)F)cc2)c2ccccc2c1=O` [5g], the melting point was 216 to 218 °C. In series [1], this compound registered an IC50 of 21.3 µM. Also, the IC50 in series [2] is 31.4 µM. The compound further gave an IC50 in series [3] of 22.4 µM.

`COc1ccc(CNc2nn(C(C)C)c(=O)c3ccccc23)cc1` [5h]: the melting point was 108 to 110 °C.

In turn, `Cn1nc(N(c2ccccc2)c2ccccn2)c2ccccc2c1=O` [5i] had a melting point of 160 to 163 °C.

Consider `CCN(CC)CCCC(C)Nc1nn(C)c(=O)c2ccccc12` (centres unmarked) [6b], for which the melting point lay in the range of 84 to 86 °C. Moreover, in series [1], the IC50 is 92.9 µM. In series [2], this compound came in with an IC50 of 51.6 µM. In series [3], this compound showed an IC50 of 66.3 µM.

For `CNCCNc1nn(C)c(=O)c2ccccc12` [6d], the melting point lay in the range of 153 to 155 °C. Further, the IC50 in series [1] was determined as 52.7 µM. In series [2], this compound returned an IC50 of 75.6 µM. In series [3], this compound showed an IC50 of 83 µM.

Consider `CCN(CC)CCCC(C)Nc1nn(CCN(C)C)c(=O)c2ccccc12` (centres unmarked) [6e], for which the melting point is 58 to 60 °C.
